Values joined by “and” are separate entries in the source; they are usually repeats but may differ in a detail not shown here. Identical values can stand only once.
System: 3T3-L1 adipocytes
Test: [3H]-2-deoxy-glucose uptake by adipocytes
Type: cell-based, Murine
Protocol: To determine if one mechanism for glyceollins to improve the oral glucose challenge in a prediabetic model is by increasing the glucose uptake by fat, glyceollin pharmacology was studied in 3T3-L1 cells. Murine preadipocytes (Zen-Bio Inc.) were cultured using PM-1-L1 medium (Zen-Bio Inc.) containing Dulbecco's modified Eagle's medium (DMEM)/Ham's F-10 medium (1:1, v/v), HEPES 15 mM (pH 7.4), 10% (v/v) fetal bovine serum, penicillin (100 U/ml), streptomycin ([…]), and amphotericin B (0.25 μg/ml) in a humidified atmosphere (5% CO2/95% air). After 3-4 days, confluent cells were placed in differentiation medium (DM-2-L1, Zen-Bio Inc.) containing DMEM/Ham's F-10 medium (1:1, v/v), HEPES 15 mM (pH 7.4), 3% (v/v) fetal bovine serum, biotin (33 μM), pantothenate (17 μM), human insulin (100 nM), dexamethasone (1 μM), penicillin (100 U/ml), streptomycin (100 μg/ml), amphotericin B (0.25 μg/ml), isobutylmethylxanthine ([…]) and PPARγ agonist (10 μM) and further incubated in the humidified atmosphere for 3 days. […]
Adipocytes were rinsed in sterile, fresh KRH buffer (HEPES pH=7.4, 1 mM CaCl2, 1.2 mM MgSO4, 1 mM KH2PO4, 1.4 mM KCl, […], 130 mM NaCl), and then preincubated for 24 h in KRH buffer. […] The vials were mixed and counted for 10 min in an Applied Biosystems 1100 liquid scintillation counter using the factory preset window to detect tritium.

insulin
EC50 (30 min exposure at 37° C., 0.3-300 nM, n=6, read-out: EC50 of insulin-mediated glucose uptake): 1.9 nM and 1.92 nM | maximal stimulation of glucose uptake relative to basal (insulin 0.3 nM-300 nM): about 3 times

— US20140275233A1, “ACTIVATED SOY POD FIBER” (priority 2013, published 2014)
